From patent publication US20260314599A1, “NEW USE OF PYDIFLUMETOFEN” (SYNGENTA CROP PROTECTION AG, priority 2022, published 2026)
Converted amounts (≈) assume the structure as drawn. “And” between values parts separate entries of the source, which are not always exact repeats. Equal entries are not always repeated.

Experiments:
Ustilaginoidea virens [1] = assay: In vitro activity of pydiflumetofen and other active ingredients against rice false smut, mycelial growth method (Example 2); type: cell-based; conditions: for EC50: mycelial growth, same protocol as Example 1
Description: (§1) Ustilaginoidea virens, the pathogens that cause rice false smut, were isolated from infected rice tissues and stored at 4° C. Pathogen was applied to the PSA plate and incubated at 28° C. for 7 days. Mycelial plugs at the edge of the colony were prepared by hole puncher with a diameter of 5 mm. Pydiflumetofen was dissolved into dimethyl sulfoxide (DMSO) to get 4×10^4 μg/mL for stock solution. Mixing PSA culture medium with stock solution of pydiflumetofen to get different series of concentration: 0, 0.0005, 0.0010, 0.0025, 0.0040, 0.0055, and 0.007 μg/mL. Using the mycelial growth method, the mycelial plugs were shifted to the center of PSA medium plates containing different pydiflumetofen concentrations. […] EC50 values were determined by the fitted regression line of the log-transformed percentage inhibition plotted against the log-transformed fungicide concentration.
Using the same protocol as for Example 1 (above), the activity of pydiflumetofen against rice false smut was compared to that of other fungicidal active ingredients.
EC50 values were determined by the fitted regression line of the log-transformed percentage inhibition plotted against the log-transformed fungicide concentration. The lower the EC50 value, the higher the activity.

Ustilaginoidea virens [2] = assay: In vitro activity against rice false smut by mycelial growth method (Example 1); type: cell-based; conditions: for Average mycelium growth diameter: untreated 35.63; for Mycelium diameter, Average: average of 8, untreated 40.63; for Mycelium diameter: individual replicates 1-8
Description: Example 1-In Vitro Activity of Pydiflumetofen Against Rice False Smut (Caused by Ustilaginoidea Virens) by Mycelial Growth Method
as §1
As stated above, EC50 values were determined by the fitted regression line of the log-transformed percentage inhibition plotted against the log-transformed fungicide concentration. The lower the EC50 value, the higher the activity.

rice false smut [3] = assay: Field trial, efficacy against rice false smut at 38 days after application (Example 3); type: in vivo, Ustilaginoidea virens; conditions: 60-75 gai/ha
From the text: (§2) • Application Method: Foliar Spray • Water Volume: 450 L/ha • Number of Applications: 1 • Application Timing: BBCH 45-47
A scale/index of 0 to 9 was used to define the level of disease severity, wherein 0 represents a healthy plant and 9 represents high levels/severe symptoms of disease. Each plant was graded on this 0 to 9 scale and the Disease Index calculated using the following formula:
Disease Index (DI)=[sum(class frequency×scpre of rating class)]/[(total number of plants)×(maximal disease index)]×100.

rice false smut [4] = assay: Field trial, efficacy against rice false smut at 77 days after application (Example 4); type: in vivo, Ustilaginoidea virens; conditions: 75 gai/ha
From the text: as §2

[5] = Ustilaginoidea virens, read-out: EC50

Molecule: CC1(C)CCC(Cc2ccc(Cl)cc2)C1(O)Cn1cncn1 (stereo not drawn) [Metconazole]
- EC50 (Ustilaginoidea virens [1]; [5]): 0.041 µg/mL (≈ 0.128 µM)

Molecule: CON(C(=O)c1cn(C)nc1C(F)F)C(C)Cc1c(Cl)cc(Cl)cc1Cl (stereo not drawn) [Pydiflumetofen, 3-(difluoromethyl)-N-methoxy-1-methyl-N-[1-methyl-2-(2,4,6-trichloro-phenyl)ethyl]-1H-pyrazole-4-carboxamide]
- Average mycelium growth diameter (Ustilaginoidea virens [2]; 0.0005 μg/mL, 28° C., 14 days): 33.13 mm
- Mycelium diameter, Average (Ustilaginoidea virens [2]; 0.0005 μg/mL, 28° C., 14 days): 38.13 mm
- Mycelium diameter (Ustilaginoidea virens [2]; 0.0005 μg/mL, 28° C., 14 days): 37 mm and 38 mm (5×) and 39 mm (2×)
- Average mycelium growth diameter (Ustilaginoidea virens [2]; 0.0010 μg/mL, 28° C., 14 days): 28.63 mm
- Mycelium diameter, Average (Ustilaginoidea virens [2]; 0.0010 μg/mL, 28° C., 14 days): 33.63 mm
- Mycelium diameter (Ustilaginoidea virens [2]; 0.0010 μg/mL, 28° C., 14 days): 32 mm (2×) and 34 mm (2×) and 33 mm (2×) and 35 mm and 36 mm
- Average mycelium growth diameter (Ustilaginoidea virens [2]; 0.0025 μg/mL, 28° C., 14 days): 20.75 mm
- Mycelium diameter, Average (Ustilaginoidea virens [2]; 0.0025 μg/mL, 28° C., 14 days): 25.75 mm
- Mycelium diameter (Ustilaginoidea virens [2]; 0.0025 μg/mL, 28° C., 14 days): 25 mm (4×) and 26 mm (3×) and 28 mm
- Average mycelium growth diameter (Ustilaginoidea virens [2]; 0.0040 μg/mL, 28° C., 14 days): 19.50 mm
- Mycelium diameter, Average (Ustilaginoidea virens [2]; 0.0040 μg/mL, 28° C., 14 days): 24.50 mm
- Mycelium diameter (Ustilaginoidea virens [2]; 0.0040 μg/mL, 28° C., 14 days): 24 mm (4×) and 25 mm (4×)
- Average mycelium growth diameter (Ustilaginoidea virens [2]; 0.0055 μg/mL, 28° C., 14 days): 17.75 mm
- Mycelium diameter, Average (Ustilaginoidea virens [2]; 0.0055 μg/mL, 28° C., 14 days): 22.75 mm
- Mycelium diameter (Ustilaginoidea virens [2]; 0.0055 μg/mL, 28° C., 14 days): 22 mm (3×) and 23 mm (4×) and 24 mm
- Average mycelium growth diameter (Ustilaginoidea virens [2]; 0.0070 μg/mL, 28° C., 14 days): 7.75 mm
- Mycelium diameter, Average (Ustilaginoidea virens [2]; 0.0070 μg/mL, 28° C., 14 days): 12.75 mm
- Mycelium diameter (Ustilaginoidea virens [2]; 0.0070 μg/mL, 28° C., 14 days): 13 mm (6×) and 12 mm (2×)
- inhibition at 0.0005 µg/mL (Ustilaginoidea virens [2]; Ustilaginoidea virens, 336 h, 0.0005 μg/mL, 28° C., 14 days): 7.02%
- inhibition at 0.001 µg/mL (Ustilaginoidea virens [2]; Ustilaginoidea virens, 336 h, 0.0010 μg/mL, 28° C., 14 days): 19.6%
- inhibition at 0.0025 µg/mL (Ustilaginoidea virens [2]; Ustilaginoidea virens, 336 h, 0.0025 μg/mL, 28° C., 14 days): 41.8%
- inhibition at 0.004 µg/mL (Ustilaginoidea virens [2]; Ustilaginoidea virens, 336 h, 0.0040 μg/mL, 28° C., 14 days): 45.3%
- inhibition at 0.0055 µg/mL (Ustilaginoidea virens [2]; Ustilaginoidea virens, 336 h, 0.0055 μg/mL, 28° C., 14 days): 50.2%
- inhibition at 0.007 µg/mL (Ustilaginoidea virens [2]; Ustilaginoidea virens, 336 h, 0.0070 μg/mL, 28° C., 14 days): 78.2%
- EC50 (Ustilaginoidea virens [2]; Ustilaginoidea virens, 336 h, mycelial growth, PSA, 28° C., 14 days): 0.0037 µg/mL (≈ 0.00867 µM)
- activity against Ustilaginoidea virens (in words) (Ustilaginoidea virens [2]; mycelial growth): very high activity
- EC50 (Ustilaginoidea virens [1]; [5]): 0.0045 µg/mL (≈ 0.0105 µM)
- activity against Ustilaginoidea virens (in words) (Ustilaginoidea virens [1]; compared to fungicides commonly used to treat rice false smut): very high activity
- control against rice false smut in the field (in words) (rice false smut [3]): good control
- control against rice false smut in the field (in words) (rice false smut [4]): good control

Molecule: OC(Cc1ccccc1Cl)(Cn1nc[nH]c1=S)C1(Cl)CC1 (stereo not drawn) [Prothioconazole]
- EC50 (Ustilaginoidea virens [1]; [5]): 3.11 µg/mL (≈ 9.03 µM)

Molecule: Epoxiconazole
- EC50 (Ustilaginoidea virens [1]): 0.0086 ppm

Molecule: CC(C)(C)C(O)(CCc1ccc(Cl)cc1)Cn1cncn1 (stereo not drawn) [Tebuconazole]
- EC50 (Ustilaginoidea virens [1]; [5]): 0.0761 µg/mL (≈ 0.247 µM)

Molecule: CC(C1CC1)C(O)(Cn1cncn1)c1ccc(Cl)cc1 (stereo not drawn) [Cyproconazole]
- EC50 (Ustilaginoidea virens [1]; [5]): 0.0387 µg/mL (≈ 0.133 µM)

Molecule: CCCC1COC(Cn2cncn2)(c2ccc(Cl)cc2Cl)O1 (stereo not drawn) [Propiconazole]
- EC50 (Ustilaginoidea virens [1]; [5]): 0.0205 µg/mL (≈ 0.0599 µM)
